Where two headings read alike, the source gives them in different places.
What was measured:
[1] = system: Key Broadleaf Weed and Crop Species; assay: Post-emergent Test II herbicidal activity (Table 5); type: in vivo; details: post-emergence, 336 h, 14 days after application; for pest or weed control at 70 g/ha: application rate 70 g ai/ha; for pest or weed control at 140 g/ha: application rate 140 g ai/ha
Outline: (§1)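 Test species were raised 7–21 d under greenhouse conditions until reaching the first or second true leaf, sprayed with formulated compound at 187 L/ha, and kept subirrigated to avoid wash-off. Fourteen days later, damage was rated visually on a 0–100% scale against untreated plants.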

[2] = system: Key Grass and Sedge Weeds as well as Grass Crops; assay: Post-emergent Test II herbicidal activity (Table 6); type: in vivo; details: post-emergence, 336 h; for pest or weed control at 70 g/ha: 70 g ai/ha; for pest or weed control at 140 g/ha: 140 g ai/ha
Outline: as §1

[3] = ABUTH: velvetleaf (Abutilon theophrasti), read-out: Visual Growth Reduction (%) 14 Days After Application, ABUTH
[4] = AMARE: redroot pigweed (Amaranthus retroflexus), read-out: Visual Growth Reduction (%) 14 Days After Application, AMARE
[5] = BRSNN: oilseed-rape, canola (Brassica napus), read-out: Visual Growth Reduction (%) 14 Days After Application, BRSNN
[6] = CHEAL: lambsquarters (Chenopodium album), read-out: Visual Growth Reduction (%) 14 Days After Application, CHEAL
[7] = EPHHL: wild poinsettia (Euphorbia heterophylla), read-out: Visual Growth Reduction (%) 14 Days After Application, EPHHL
[8] = HELAN: sunflower (Helianthus annuus), read-out: Visual Growth Reduction (%) 14 Days After Application, HELAN
[9] = VIOTR: wild pansy (Viola tricolor), read-out: Visual Growth Reduction (%) 14 Days After Application, VIOTR
[10] = CYPES: yellow nutsedge (Cyperus esculentus), read-out: Visual Growth Reduction (%) 14 Days After Application, CYPES
[11] = DIGSA: crabgrass (Digitaria sanguinalis), read-out: Visual Growth Reduction (%) 14 Days After Application, DIGSA
[12] = ECHCG: barnyardgrass (Echinochloa crus-galli), read-out: Visual Growth Reduction (%) 14 Days After Application, ECHCG
[13] = ORYSA: rice (Oryza sativa), crop, read-out: Visual Growth Reduction (%) 14 Days After Application, ORYSA
[14] = SETFA: giant foxtail (Setaria faberi), read-out: Visual Growth Reduction (%) 14 Days After Application, SETFA
[15] = SORVU: grain sorghum (Sorghum vulgare), read-out: Visual Growth Reduction (%) 14 Days After Application, SORVU
[16] = TRZSS (wheat, Triticum aestivum), crop, read-out: Visual Growth Reduction (%) 14 Days After Application, TRZSS
[17] = ZEAMX: maize, corn (Zea mays), crop, read-out: Visual Growth Reduction (%) 14 Days After Application, ZEAMX

Compound | pest or weed control at 70 g/ha [1, 3] | pest or weed control at 140 g/ha [1, 3] | pest or weed control at 70 g/ha [1, 4] | pest or weed control at 140 g/ha [1, 4] | pest or weed control at 70 g/ha [1, 5] | pest or weed control at 140 g/ha [1, 5] | pest or weed control at 70 g/ha [1, 6] | pest or weed control at 140 g/ha [1, 6] | pest or weed control at 70 g/ha [1, 7] | pest or weed control at 140 g/ha [1, 7] | pest or weed control at 70 g/ha [1, 8] | pest or weed control at 140 g/ha [1, 8] | pest or weed control at 70 g/ha [1, 9] | pest or weed control at 140 g/ha [1, 9] | pest or weed control at 70 g/ha [2, 10] | pest or weed control at 140 g/ha [2, 10] | pest or weed control at 70 g/ha [2, 11] | pest or weed control at 140 g/ha [2, 11] | pest or weed control at 70 g/ha [2, 12] | pest or weed control at 140 g/ha [2, 12] | further results
COC(=O)c1nc(-c2ccc(C(F)F)c(F)c2)cc(N)c1Cl [Compound 196] | 95 to 100% | 95 to 100% | 95 to 100% | 95 to 100% | 30 to 44% | 30 to 44% | 95 to 100% | 95 to 100% | 95 to 100% | 95 to 100% | 95 to 100% | 95 to 100% | 0 to 29% | 0 to 29% | 85 to 94% | 85 to 94% | 45 to 59% | 45 to 59% | 95 to 100% | 95 to 100% | pest or weed control at 70 g/ha [2, 13]: 0 to 29%; pest or weed control at 140 g/ha [2, 13]: 0 to 29%; pest or weed control at 70 g/ha [2, 14]: 0 to 29%; pest or weed control at 140 g/ha [2, 14]: 0 to 29%; pest or weed control at 70 g/ha [2, 15]: 75 to 84%; pest or weed control at 140 g/ha [2, 15]: 75 to 84%; pest or weed control at 70 g/ha [2, 16]: 0 to 29%; pest or weed control at 140 g/ha [2, 16]: 0 to 29%; pest or weed control at 70 g/ha [2, 17]: 0 to 29%; pest or weed control at 140 g/ha [2, 17]: 75 to 84%
COC(=O)c1nc(-c2cccc(F)c2F)c(F)c(N)c1Cl [Compound 199] | 95 to 100% | 95 to 100% | 95 to 100% | 95 to 100% | 85 to 94% | 95 to 100% | 85 to 94% | 95 to 100% | 60 to 74% | 85 to 94% | 75 to 84% | 95 to 100% | 0 to 29% | 30 to 44% | 0 to 29% | 0 to 29% | 0 to 29% | 0 to 29% | 0 to 29% | 0 to 29% | pest or weed control at 70 g/ha [2, 13]: 0 to 29%; pest or weed control at 140 g/ha [2, 13]: 0 to 29%; pest or weed control at 70 g/ha [2, 14]: 0 to 29%; pest or weed control at 140 g/ha [2, 14]: 0 to 29%; pest or weed control at 70 g/ha [2, 15]: 0 to 29%; pest or weed control at 140 g/ha [2, 15]: 0 to 29%; pest or weed control at 70 g/ha [2, 16]: 0 to 29%; pest or weed control at 140 g/ha [2, 16]: 0 to 29%; pest or weed control at 70 g/ha [2, 17]: 0 to 29%; pest or weed control at 140 g/ha [2, 17]: 0 to 29%
